Target: T1, β-secretase (BACE) (Homo sapiens, UniProt P56817)
T1 construct: purchased Panvera
Assay: BACE FS1 % Inhibition Assay
Assay type: biochemical
How it was run: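 Percent inhibition per compound concentration was referenced to vehicle-treated enzyme and no-enzyme wells. Enzyme at a 4 μg/mL working stock plus compound was mixed for 20 min at room temperature before the FS1 substrate (300 μg/mL working stock) was added for a 1 h room-temperature reaction.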

T1 sequence (P56817 46-501): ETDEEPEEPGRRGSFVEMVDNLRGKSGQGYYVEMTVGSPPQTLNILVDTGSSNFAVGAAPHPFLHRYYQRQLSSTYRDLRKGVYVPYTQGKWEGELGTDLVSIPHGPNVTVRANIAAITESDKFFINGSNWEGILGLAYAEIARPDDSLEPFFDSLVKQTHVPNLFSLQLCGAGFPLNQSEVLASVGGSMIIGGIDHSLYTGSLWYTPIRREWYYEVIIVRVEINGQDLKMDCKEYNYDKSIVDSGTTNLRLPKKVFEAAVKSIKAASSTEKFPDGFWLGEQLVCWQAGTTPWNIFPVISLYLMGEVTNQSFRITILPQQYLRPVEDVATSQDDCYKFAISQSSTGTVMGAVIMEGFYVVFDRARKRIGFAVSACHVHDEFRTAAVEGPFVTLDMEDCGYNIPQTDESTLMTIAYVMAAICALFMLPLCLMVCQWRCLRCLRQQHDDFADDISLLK

% Inhibition (FS) (0.3 μM test compound)	% Inhibition (FS) (1 μM test compound)	% Inhibition (FS) (3 μM test compound)	SMILES	also measured
–	–	–	CCCC(CNC(=O)C12CC3CC(CC(C3)C1)C2)N1Cc2cc(Oc3ccccc3)ccc2N=C1N (stereo not shown) [Compound 602]	% Inhibition (FS) (0.3 μM test compound, 0.3 µM): 78%; % Inhibition (FS) (1 μM test compound, 1 µM): 113%; % Inhibition (FS) (3 μM test compound, 3 µM): 121%
101%	114%	122%	CCC[C@H](CNC(=O)CCC(C)C)N1Cc2cc(Oc3ccccc3)ccc2N=C1N [Compound 603]	–
94%	116%	123%	COc1ccccc1-c1ccc2c(c1)CN(Cc1cccc(C(=O)N(C)C3CCCCC3)c1)C(NC(C)=O)=N2 [Compound 607]	–
<30%	36%	<30%	NC1=Nc2ccc(Oc3ccccc3)cc2CN1C1CCCN(C(=O)C2CCCCC2)C1 (stereo not shown) [Compound 611]	–
<30%	34%	<30%	CCCC(CCC)C(=O)N1CCCC(N2Cc3cc(Oc4ccccc4)ccc3N=C2N)C1 (stereo not shown) [Compound 612]	–
36%	31%	<30%	CC(C)CCC(=O)N1CCCC(N2Cc3cc(Oc4ccccc4)ccc3N=C2N)C1 (stereo not shown) [Compound 613]	–
<30%	<30%	<30%	NC1=Nc2ccc(Oc3ccccc3)cc2CN1C(CNC(=O)C1CCCCC1)Cc1ccc(O)cc1 (stereo not shown) [Compound 614]	–
<30%	<30%	<30%	CC(C)CCC(=O)NCC(Cc1ccc(O)cc1)N1Cc2cc(Oc3ccccc3)ccc2N=C1N (stereo not shown) [Compound 615]	–
119%	118%	125%	CN(C(=O)CCC(C1CCOCC1)N1Cc2cc(Oc3ccccc3)ccc2N=C1N)C1CCCCC1 (stereo not shown) [Compound 619]	–
<30%	<30%	37%	COc1ccccc1-c1cc2c(cc1F)CN(CCC(=O)NC1C3CC4CC(C3)CC1C4)C(N)=N2 (stereo not shown) [Compound 620]	–
<30%	–	–	NC1=Nc2ccc(-c3ccc(F)cc3)cc2CN1CCNC(=O)C1CCCCC1 [Compound 623]	% Inhibition (FS) (1 μM test compound, 1 µM): <30%; % Inhibition (FS) (3 μM test compound, 3 µM): 82%
<30%	–	–	NC1=Nc2ccc(-c3ccc(F)cc3)cc2CN1CCNC(=O)C1CCCCC1 [Compound 624]	% Inhibition (FS) (1 μM test compound, 1 µM): 38%; % Inhibition (FS) (3 μM test compound, 3 µM): 78%
<30%	<30%	56%	NC1=Nc2ccc(-c3ccc(Cl)cc3)cc2CN1CCNC(=O)C1CCCCC1 [Compound 626]	–
<30%	<30%	32%	Cc1ccc(-c2ccc3c(c2)CN(CCNC(=O)C2CCCCC2)C(N)=N3)cc1 [Compound 628]	–
<30%	<30%	48%	COc1ccc(C)cc1-c1ccc2c(c1)CN(CCNC(=O)C1CCCCC1)C(N)=N2 [Compound 630]	–
<30%	<30%	48%	COc1ccc(F)cc1-c1ccc2c(c1)CN(CCNC(=O)C1CCCCC1)C(N)=N2 [Compound 631]	–
<30%	30%	70%	CN(C(=O)CCC(C1CCCCC1)N1Cc2cc(Oc3ccccc3)ccc2N=C1N)C1CCOCC1 (stereo not shown) [Compound 633]	–
<30%	<30%	73%	NC1=Nc2ccc(Oc3ccccc3)cc2CN1CC(NC(=O)C1CCCCC1)C1CCCCC1 (stereo not shown) [Compound 637]	–
<30%	<30%	48%	CN(C(=O)CCC(C1CCCCC1)N1Cc2cc(Oc3ccccc3)ccc2N=C1N)C1CCC(O)CC1 (stereo not shown) [Compound 639]	–
<30%	<30%	<30%	NC1=Nc2ccc(Oc3ccccc3)cc2CN1Cc1ocnc1C(=O)NC1CCCCC1 [Compound 640]	–
<30%	<30%	48%	CN(C(=O)c1ncoc1CN1Cc2cc(Oc3ccccc3)ccc2N=C1N)C1CCCCC1 [Compound 641]	–
37%	63%	96%	NC1=Nc2ccc(-c3ccccc3F)cc2CN1CCNC(=O)C1CCC1 [Compound 642]	–
74%	92%	110%	NC1=Nc2ccc(-c3ccccc3F)cc2CN1CCNC(=O)C1CCCC1 [Compound 643]	–
46%	72%	104%	NC1=Nc2ccc(-c3ccccc3F)cc2CN1CCNC(=O)C12CC3CC(CC(C3)C1)C2 [Compound 644]	–
67%	57%	91%	CCCC(=O)NCCN1Cc2cc(-c3ccccc3F)ccc2N=C1N [Compound 645]	–

% Inhibition (FS) (0.3 μM test compound)	% Inhibition (FS) (1 μM test compound)	% Inhibition (FS) (3 μM test compound)	SMILES	also measured
52%	72%	97%	CC(C)(C)C(=O)NCCN1Cc2cc(-c3ccccc3F)ccc2N=C1N [Compound 646]	–
39%	74%	104%	CCCCC(CC)C(=O)NCCN1Cc2cc(-c3ccccc3F)ccc2N=C1N (stereo not shown) [Compound 648]	–
34%	65%	95%	NC1=Nc2ccc(-c3ccccc3Cl)cc2CN1CCNC(=O)C1CCC1 [Compound 649]	–
72%	94%	112%	NC1=Nc2ccc(-c3ccccc3Cl)cc2CN1CCNC(=O)C1CCCC1 [Compound 650]	–
<30%	51%	96%	NC1=Nc2ccc(-c3ccccc3Cl)cc2CN1CCNC(=O)C12CC3CC(CC(C3)C1)C2 [Compound 651]	–
31%	63%	91%	CCCC(=O)NCCN1Cc2cc(-c3ccccc3Cl)ccc2N=C1N [Compound 652]	–
46%	82%	101%	CC(C)(C)C(=O)NCCN1Cc2cc(-c3ccccc3Cl)ccc2N=C1N [Compound 653]	–
45%	79%	104%	CCCCC(CC)C(=O)NCCN1Cc2cc(-c3ccccc3Cl)ccc2N=C1N (stereo not shown) [Compound 655]	–
56%	87%	104%	Cc1ccccc1-c1ccc2c(c1)CN(CCNC(=O)C1CCC1)C(N)=N2 [Compound 656]	–
<30%	62%	100%	Cc1ccccc1-c1ccc2c(c1)CN(CCNC(=O)C13CC4CC(CC(C4)C1)C3)C(N)=N2 [Compound 658]	–
43%	69%	100%	CCCC(=O)NCCN1Cc2cc(-c3ccccc3C)ccc2N=C1N [Compound 659]	–
63%	86%	105%	Cc1ccccc1-c1ccc2c(c1)CN(CCNC(=O)C(C)(C)C)C(N)=N2 [Compound 660]	–
–	–	–	Cc1ccccc1-c1ccc2c(c1)CN(CCNC(=O)CCC(C)C)C(N)=N2 [Compound 661]	% Inhibition (FS) (0.3 μM compound, FS1 substrate): 68%; % Inhibition (FS) (1 μM compound, FS1 substrate): 98%
–	–	–	CCCCC(CC)C(=O)NCCN1Cc2cc(-c3ccccc3C)ccc2N=C1N (stereo not shown) [Compound 662]	% Inhibition (FS) (0.3 μM compound, FS1 substrate): 66%; % Inhibition (FS) (1 μM compound, FS1 substrate): 97%
–	–	–	NC1=Nc2ccc(-c3ccc4ccccc4c3)cc2CN1CCNC(=O)C1CCC1 [Compound 663]	% Inhibition (FS) (0.3 μM compound, FS1 substrate): <30%; % Inhibition (FS) (1 μM compound, FS1 substrate): <30%; % Inhibition (FS) (3 μM compound, FS1 substrate): <30%
–	–	–	NC1=Nc2ccc(-c3ccc4ccccc4c3)cc2CN1CCNC(=O)C1CCCC1 [Compound 664]	% Inhibition (FS) (0.3 μM compound, FS1 substrate): <30%; % Inhibition (FS) (1 μM compound, FS1 substrate): <30%; % Inhibition (FS) (3 μM compound, FS1 substrate): <30%
–	–	–	NC1=Nc2ccc(-c3ccc4ccccc4c3)cc2CN1CCNC(=O)C12CC3CC(CC(C3)C1)C2 [Compound 665]	% Inhibition (FS) (0.3 μM compound, FS1 substrate): 35%; % Inhibition (FS) (1 μM compound, FS1 substrate): <30%; % Inhibition (FS) (3 μM compound, FS1 substrate): <30%
–	–	–	CCCC(=O)NCCN1Cc2cc(-c3ccc4ccccc4c3)ccc2N=C1N [Compound 666]	% Inhibition (FS) (0.3 μM compound, FS1 substrate): 37%; % Inhibition (FS) (1 μM compound, FS1 substrate): <30%; % Inhibition (FS) (3 μM compound, FS1 substrate): <30%
–	–	–	CC(C)(C)C(=O)NCCN1Cc2cc(-c3ccc4ccccc4c3)ccc2N=C1N [Compound 667]	% Inhibition (FS) (0.3 μM compound, FS1 substrate): 33%; % Inhibition (FS) (1 μM compound, FS1 substrate): <30%; % Inhibition (FS) (3 μM compound, FS1 substrate): <30%
–	–	–	CC(C)CCC(=O)NCCN1Cc2cc(-c3ccc4ccccc4c3)ccc2N=C1N [Compound 668]	% Inhibition (FS) (0.3 μM compound, FS1 substrate): <30%; % Inhibition (FS) (1 μM compound, FS1 substrate): <30%; % Inhibition (FS) (3 μM compound, FS1 substrate): <30%
–	–	–	CCCCC(CC)C(=O)NCCN1Cc2cc(-c3ccc4ccccc4c3)ccc2N=C1N (stereo not shown) [Compound 669]	% Inhibition (FS) (0.3 μM compound, FS1 substrate): <30%; % Inhibition (FS) (1 μM compound, FS1 substrate): <30%; % Inhibition (FS) (3 μM compound, FS1 substrate): 32%
–	–	–	NC1=Nc2ccc(-c3cnc4ccccc4c3)cc2CN1CCNC(=O)C1CCC1 [Compound 670]	% Inhibition (FS) (0.3 μM compound, FS1 substrate): <30%; % Inhibition (FS) (1 μM compound, FS1 substrate): <30%; % Inhibition (FS) (3 μM compound, FS1 substrate): 44%
–	–	–	NC1=Nc2ccc(-c3cnc4ccccc4c3)cc2CN1CCNC(=O)C1CCCC1 [Compound 671]	% Inhibition (FS) (0.3 μM compound, FS1 substrate): <30%; % Inhibition (FS) (1 μM compound, FS1 substrate): 30%; % Inhibition (FS) (3 μM compound, FS1 substrate): <30%
–	–	–	NC1=Nc2ccc(-c3cnc4ccccc4c3)cc2CN1CCNC(=O)C12CC3CC(CC(C3)C1)C2 [Compound 672]	% Inhibition (FS) (0.3 μM compound, FS1 substrate): <30%; % Inhibition (FS) (1 μM compound, FS1 substrate): <30%; % Inhibition (FS) (3 μM compound, FS1 substrate): <30%
–	–	–	CCCC(=O)NCCN1Cc2cc(-c3cnc4ccccc4c3)ccc2N=C1N [Compound 673]	% Inhibition (FS) (0.3 μM compound, FS1 substrate): 34%; % Inhibition (FS) (1 μM compound, FS1 substrate): <30%; % Inhibition (FS) (3 μM compound, FS1 substrate): <30%
